Test results published in US20180201592A1, “2-AMINO-1,3,4-THIADIAZINE AND 2-AMINO-1,3,4-OXADIAZINE BASED ANTIFUNGAL AGENTS” (F2G Limited, priority 2015, published 2018).

Key:
Conditions in all cases: banded MIC grade
Aspergillus fumigatus = assay: Minimum inhibitory concentration, YAG medium; assay type: cell-based
How it was run: (§1)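 Broth microdilution in YAG medium; inoculum 1-2×10^4 cfu/mL; compound 50-0.05 mg/L in doubling steps, from DMSO stock. 24 h, 35° C. Read OD 485 nm; MIC = lowest conc. inhibiting growth >70% vs no-drug control, in mg/L.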

A. terreus = assay: Minimum inhibitory concentration, RPMI medium; assay type: cell-based
How it was run: (§2)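 Growth inhibition was judged from optical density at 485 nm per well after 24-48 hrs at 35° C. Test compound came from a 5 mg/mL DMSO stock, serially doubled in water before testing in RPMI 1640.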

C. parapsilosis = assay: Minimum inhibitory concentration, RPMI medium; assay type: cell-based
How it was run: as §2

A. flavus = assay: Minimum inhibitory concentration, RPMI medium; assay type: cell-based
How it was run: as §2

C. krusei = assay: Minimum inhibitory concentration, RPMI medium; assay type: cell-based
How it was run: as §2

C. albicans = assay: Minimum inhibitory concentration, RPMI medium; assay type: cell-based
How it was run: as §2

C. glabrata = assay: Minimum inhibitory concentration, RPMI medium; assay type: cell-based
How it was run: as §2

C. tropicalis = assay: Minimum inhibitory concentration, RPMI medium; assay type: cell-based
How it was run: as §2

A. terreus 49 [1] = assay: Minimum inhibitory concentration, RPMI medium; assay type: cell-based
How it was run: as §2

A. niger = assay: Minimum inhibitory concentration, RPMI medium; assay type: cell-based
How it was run: as §2

Aspergillus niger = assay: Minimum inhibitory concentration, YAG medium; assay type: cell-based
How it was run: (§3)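 Growth inhibition was read as absorbance at 485 nm after spores of Aspergillus spp. were exposed for 24 hrs at 35° C to doubling dilutions of the compound. Dilutions were made in water starting from a 5 mg/mL DMSO stock, and MIC values were expressed in mg/L.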

Aspergillus flavus = assay: Minimum inhibitory concentration, YAG medium; assay type: cell-based
How it was run: as §3

Aspergillus terreus = assay: Minimum inhibitory concentration, YAG medium; assay type: cell-based
How it was run: as §3

A. fumigatus = assay: Minimum inhibitory concentration, RPMI medium; assay type: cell-based
How it was run: (§4)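 Broth microdilution in RPMI 1640 (2% glucose, 0.135 M MOPS, pH 7.0) at 1-2×10^4 cfu/mL, testing 50-0.05 mg/L in doubling steps. After 24-48 hrs at 35° C, OD at 485 nm was read, and the MIC was taken as the lowest drug level suppressing growth by >80% relative to drug-free wells.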

A. fumigatus 210 [2] = assay: Minimum inhibitory concentration, RPMI medium; assay type: cell-based
How it was run: as §4

A. terreus 49 [3] = assay: Minimum inhibitory concentration, YAG medium; assay type: cell-based, Aspergillus terreus
How it was run: as §3

A. fumigatus 210 [4] = assay: Minimum inhibitory concentration, YAG medium; assay type: cell-based, Aspergillus fumigatus
How it was run: as §1

Row | SMILES | MIC grade, A. FUMIGATUS, YAG media (Aspergillus fumigatus) | MIC grade, A. TERREUS, RPMI media (A. terreus) | MIC grade, C. PARAPSILOSIS, RPMI media (C. parapsilosis) | MIC grade, A. FLAVUS, RPMI media (A. flavus) | MIC grade, C. KRUSEI, RPMI media (C. krusei) | MIC grade, C. ALBICANS, RPMI media (C. albicans) | MIC grade, C. GLABRATA, RPMI media (C. glabrata) | MIC grade, C. TROPICALIS, RPMI media (C. tropicalis) | MIC grade, A. TERREUS 49, RPMI media (A. terreus 49 [1]) | MIC grade, A. NIGER, RPMI media (A. niger) | MIC grade, A. NIGER, YAG media (Aspergillus niger) | MIC grade, A. FLAVUS, YAG media (Aspergillus flavus) | MIC grade, A. TERREUS, YAG media (Aspergillus terreus) | MIC grade, A. FUMIGATUS, RPMI media (A. fumigatus) | MIC grade, A. FUMIGATUS 210, RPMI media (A. fumigatus 210 [2]) | MIC grade, A. TERREUS 49, YAG media (A. terreus 49 [3]) | MIC grade, A. FUMIGATUS 210, YAG media (A. fumigatus 210 [4])
1 | NC1=NN=C(CCCCOCc2cccc(CCc3ccccc3)c2)CS1 | 2 (2: 1-5 mg/L) | 1 (1: ≥20 mg/L) | 2 (2: 5-20 mg/L) | 2 (2: 5-20 mg/L) | 2 (2: 5-20 mg/L) | 2 (2: 5-20 mg/L) | 1 (1: ≥20 mg/L) | 2 (2: 5-20 mg/L) | 1 (1: ≥20 mg/L) | 1 (1: ≥20 mg/L) | 2 (2: 1-5 mg/L) | 2 (2: 1-5 mg/L) | 2 (2: 1-5 mg/L) | 1 (1: ≥20 mg/L) | 1 (1: ≥20 mg/L) | 2 (2: 1-5 mg/L) | 1 (1: ≥5 mg/L)
2 | CC(=O)OCCCCC1=NN=C(N)SC1 | 4 (4: <0.2 mg/L) | 3 (3: 1-5 mg/L) | 4 (4: <1 mg/L) | 3 (3: 1-5 mg/L) | 4 (4: <1 mg/L) | 3 (3: 1-5 mg/L) | 2 (2: 5-20 mg/L) | 3 (3: 1-5 mg/L) | 3 (3: 1-5 mg/L) | 2 (2: 5-20 mg/L) | 3 (3: 0.2-1 mg/L) | 4 (4: <0.2 mg/L) | 4 (4: <0.2 mg/L) | 3 (3: 1-5 mg/L) | 3 (3: 1-5 mg/L) | 4 (4: <0.2 mg/L) | 4 (4: <0.2 mg/L)
3 | NC1=NN=C(CCCCOCc2ccccc2C2CC2)CS1 | 2 (2: 1-5 mg/L) | 2 (2: 5-20 mg/L) | 3 (3: 1-5 mg/L) | 1 (1: ≥20 mg/L) | 2 (2: 5-20 mg/L) | 3 (3: 1-5 mg/L) | 2 (2: 5-20 mg/L) | 3 (3: 1-5 mg/L) | 2 (2: 5-20 mg/L) | 1 (1: ≥20 mg/L) | 2 (2: 1-5 mg/L) | 3 (3: 0.2-1 mg/L) | 2 (2: 1-5 mg/L) | 2 (2: 5-20 mg/L) | 1 (1: ≥20 mg/L) | 2 (2: 1-5 mg/L) | 2 (2: 1-5 mg/L)
4 | NC1=NN=C(CCCCOCc2ccc(F)cc2)CS1 | 2 (2: 1-5 mg/L) | 1 (1: ≥20 mg/L) | 2 (2: 5-20 mg/L) | 1 (1: ≥20 mg/L) | 2 (2: 5-20 mg/L) | 2 (2: 5-20 mg/L) | 2 (2: 5-20 mg/L) | 2 (2: 5-20 mg/L) | 1 (1: ≥20 mg/L) | 1 (1: ≥20 mg/L) | 2 (2: 1-5 mg/L) | 2 (2: 1-5 mg/L) | 2 (2: 1-5 mg/L) | 1 (1: ≥20 mg/L) | 1 (1: ≥20 mg/L) | 2 (2: 1-5 mg/L) | 2 (2: 1-5 mg/L)
5 | Cc1cc(COCCCCC2=NN=C(N)SC2)ccc1F | 4 (4: <0.2 mg/L) | 3 (3: 1-5 mg/L) | 4 (4: <1 mg/L) | 4 (4: <1 mg/L) | 4 (4: <1 mg/L) | 4 (4: <1 mg/L) | 3 (3: 1-5 mg/L) | 4 (4: <1 mg/L) | 3 (3: 1-5 mg/L) | 3 (3: 1-5 mg/L) | 4 (4: <0.2 mg/L) | 4 (4: <0.2 mg/L) | 4 (4: <0.2 mg/L) | 4 (4: <1 mg/L) | 2 (2: 5-20 mg/L) | 4 (4: <0.2 mg/L) | 4 (4: <0.2 mg/L)
6 | NC1=NN=C(CCCCOCc2ccccc2C(F)(F)F)CS1 | 3 (3: 0.2-1 mg/L) | 1 (1: ≥20 mg/L) | 1 (1: ≥20 mg/L) | 1 (1: ≥20 mg/L) | 2 (2: 5-20 mg/L) | 2 (2: 5-20 mg/L) | 1 (1: ≥20 mg/L) | 2 (2: 5-20 mg/L) | 1 (1: ≥20 mg/L) | 1 (1: ≥20 mg/L) | 3 (3: 0.2-1 mg/L) | 2 (2: 1-5 mg/L) | 2 (2: 1-5 mg/L) | 1 (1: ≥20 mg/L) | 1 (1: ≥20 mg/L) | 2 (2: 1-5 mg/L) | 2 (2: 1-5 mg/L)
7 | NC1=NN=C(CCCCOCc2ccc(Br)cc2)CS1 | 4 (4: <0.2 mg/L) | 4 (4: <1 mg/L) | 4 (4: <1 mg/L) | 4 (4: <1 mg/L) | 4 (4: <1 mg/L) | 4 (4: <1 mg/L) | 4 (4: <1 mg/L) | 4 (4: <1 mg/L) | 3 (3: 1-5 mg/L) | 3 (3: 1-5 mg/L) | 4 (4: <0.2 mg/L) | 4 (4: <0.2 mg/L) | 4 (4: <0.2 mg/L) | 2 (2: 5-20 mg/L) | 2 (2: 5-20 mg/L) | 4 (4: <0.2 mg/L) | 4 (4: <0.2 mg/L)
